Measurements: the METLIN SMRT retention time set (Domingo-Almenara et al. 2019)

Assay: gradient 5% acetonitrile 3 min, to 50% in 2 min, to 85% in 15 min, held 3 min, 100 µL/min
Conditions: column: Zorbax Extend-C18 2.1 x 50 mm; eluents: water / acetonitrile, 0.1% formic acid
Outline: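 Over 3 months, pure standards in mixtures of ~100 molecules were run by HPLC coupled to a quadrupole time-of-flight mass spectrometer in positive and negative ionization mode. The column was a Zorbax Extend-C18 (2.1 × 50 mm, 1.8 μm) at 100 μL/min, eluted with water and acetonitrile each holding 0.1% formic acid, with 40 μL dead and 900 μL dwell volumes. Retention time was determined from adduct peaks chosen by software and checked manually.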

| Compound | RP-LC retention time [s] |
| --- | --- |
| COc1ccc(C(=O)N2CCc3ccc(C(=O)NCc4cccs4)cc32)cc1 | 806 |
| Cc1ccccc1-c1noc(C2CCCN2C(=O)CNS(=O)(=O)c2ccc(Cl)cc2)n1 (stereo not given) | 1020 |
| C=CCNC(=O)c1ccc2c(c1)N(C)C(=O)CS2 | 671 |
| CCOc1ccc(C(=O)NC2(c3nc(C)no3)CCCCC2)cc1OCC | 903 |
| CCOc1cc(C(=O)Nc2ccc(Cl)c(-c3nc4ccccc4[nH]3)c2)cc(OCC)c1OCC | 967 |
| O=C(CCNc1cnc2cnccn12)NCc1cccc(C(F)(F)F)c1 | 608 |
| Cn1c(C(=O)NCc2ccc(F)cc2)cc2sccc21 | 663 |
| Cc1ccc(C(=O)N2CCC3(CC2)N=C(c2ccc(C)cc2)NO3)cc1 | 858 |
| O=C(C1CCN(c2cncnc2N2CCCCC2)CC1)N1CCN(C2CCCCC2)CC1 | 557 |
| O=C(CN1C(=O)CC(c2ccccc2)S(=O)(=O)c2ccccc21)NC1CCCC1 (stereo not given) | 831 |
| CCn1c(=O)c2ccccc2n(Cc2nc(-c3ccc(OC(C)C)cc3)no2)c1=O | 1050 |
| Cc1ccc(C2(C)NC(=O)NC2=O)cc1 (stereo not given) | 604 |
| CC(=O)Nc1cccc(NC(=O)C2CC(=O)N(c3n[nH]c4cccc(F)c34)C2)c1 (stereo not given) | 644 |
| c1cncc(-c2nc(CC3CCCNC3)no2)c1 (stereo not given) | 564 |
| COc1ccc(NS(=O)(=O)c2cc(-c3[nH]ncc3C(=O)N3CCCC3)oc2C)c(C)c1 | 707 |
| CCN1CCCC1CNC(=O)c1nc(-c2ccc3c(c2)OCC(=O)N3C)no1 (stereo not given) | 617 |
| CCc1nc(-c2csc(S(=O)(=O)N3CCCC(C(=O)NCc4ccccn4)C3)c2)no1 (stereo not given) | 681 |
| O=C(c1cn(-c2cc(N3CCCCC3)ncn2)cn1)N1CCN(c2ccccn2)CC1 | 636 |
| CCCCN(C)C(=O)C1CCC(=O)N(c2cc(OC)c(OC)c(OC)c2)C1c1ccc(OC)cc1 (stereo not given) | 768 |
| CCOC(=O)c1cc(S(=O)(=O)N2CCCC2C(=O)NC2CCCCCCC2)cn1C (stereo not given) | 1020 |
| CC(C)NC(=O)C1CCCN(c2nc3ncn(CC(=O)Nc4cccc(Cl)c4)c(=O)c3s2)C1 (stereo not given) | 738 |
| CCOC(=O)CC(=O)N1CCSC1COc1ccccc1OC (stereo not given) | 903 |
| CC(=O)N1CCCc2cc(S(=O)(=O)N3CCC(C(=O)Nc4cccc(C)n4)CC3)ccc21 | 684 |

| Compound | RP-LC retention time [s] |
| --- | --- |
| COc1ccc2c(c1)C1(CCN(C(=O)c3ccc(F)cc3)C1)C(=O)N2 (stereo not given) | 714 |
| O=C(NC1CCN(Cc2ccccc2)CC1)c1cn2nc(Cl)ccc2n1 | 621 |
| COc1ccc(C)cc1NC(=O)N1CCC(CC(=O)N2CCCCC2)CC1 | 811 |
| Cc1ccc(S(=O)(=O)/C=C/C#N)cc1 | 929 |
| O=S(=O)(Nc1ccc(F)cc1)c1cccnc1Nc1cccc(Cl)c1 | 1130 |
| Cn1nnc2c(N3CCN(S(=O)(=O)c4cccs4)CC3)ncnc21 | 726 |
| CCn1cc(-c2nc(C)c(C(=O)Nc3cccc(C)c3)s2)c2cccnc21 | 971 |
| CCCNC(=O)C1CCCN(c2ccc(SCC(=O)NCc3ccc(C(F)(F)F)cc3)nn2)C1 (stereo not given) | 700 |
| COCCn1ccc2nc(C)c(C(=O)NCc3ccc(SC)cc3)cc2c1=O | 712 |
| Cc1sc(NC(=O)c2ccccc2Br)nc1-c1ccc2c(c1)NC(=O)CO2 | 859 |
| CC(C)Cc1csc(-c2csc(S(=O)(=O)NCc3ccc(F)cc3)c2)n1 | 1160 |
| O=C(CCc1nc2ccccc2s1)NC1CCN(C(=O)N2C[C@H]3C[C@H](C2)[C@H]2CCCC(=O)N2C3)CC1 | 661 |
| CCCS(=O)(=O)N1C[C@@H](COC)[C@H](c2ccccn2)C1 | 619 |
| O=C(CCCn1c(=O)c2cccn2c2ccc(F)cc21)NCCN1CCCCCC1 | 635 |
| COc1ccc2oc(-c3noc(C4CC(=O)N(c5ccccc5)C4)n3)c(C)c2c1 (stereo not given) | 1040 |
| CCOc1ccc(-n2nnc(-c3nc(-c4ccccc4OC)cs3)c2N)cc1 | 1170 |
| O=C(CN1C(=O)CCSc2ccccc21)NCc1ccc(F)cc1 | 794 |
| O=C(c1ccccc1F)N1CCC2(CC1)N=C(c1ccc(Cl)cc1)NO2 | 876 |
| CCC(=O)Nc1cc(C(=O)NCc2ccc(N3CCOCC3)cc2)c2ccc(C)nc2c1 | 585 |
| CCOC(=O)c1cc(C2CC2)nc2c1c(=O)n(Cc1cccc(F)c1)c(=O)n2C | 1160 |
| O=C(c1nc2ccccc2s1)N1CCC(COCc2ccccc2)CC1 | 1150 |
| Cc1nn(-c2ccc(F)cc2)c2nc(N3CCCC(C(=O)NCc4cccc(Cl)c4)C3)sc12 (stereo not given) | 1200 |
